Reference: BindingDB's records for patent US11795173 (Xinthera, 2023)

What was measured:
[1] = target: Poly [ADP-ribose] polymerase 2 (Homo sapiens, UniProt Q9UGN5); assay: Biochemical (FP) Assay
Description: (§1) PARP1 and PARP2 protein were expressed, purified, and diluted in assay buffer containing 50 mM Tris pH 8.0, 0.001% Triton X-100, 10 mM MgCI2, 150 mM NaCI to a final concentration of 20 nM.

[2] = target: Poly [ADP-ribose] polymerase 1 (Homo sapiens, UniProt P09874); assay: Biochemical (FP) Assay
Poly [ADP-ribose] polymerase 1, sequence (P09874 whole entry): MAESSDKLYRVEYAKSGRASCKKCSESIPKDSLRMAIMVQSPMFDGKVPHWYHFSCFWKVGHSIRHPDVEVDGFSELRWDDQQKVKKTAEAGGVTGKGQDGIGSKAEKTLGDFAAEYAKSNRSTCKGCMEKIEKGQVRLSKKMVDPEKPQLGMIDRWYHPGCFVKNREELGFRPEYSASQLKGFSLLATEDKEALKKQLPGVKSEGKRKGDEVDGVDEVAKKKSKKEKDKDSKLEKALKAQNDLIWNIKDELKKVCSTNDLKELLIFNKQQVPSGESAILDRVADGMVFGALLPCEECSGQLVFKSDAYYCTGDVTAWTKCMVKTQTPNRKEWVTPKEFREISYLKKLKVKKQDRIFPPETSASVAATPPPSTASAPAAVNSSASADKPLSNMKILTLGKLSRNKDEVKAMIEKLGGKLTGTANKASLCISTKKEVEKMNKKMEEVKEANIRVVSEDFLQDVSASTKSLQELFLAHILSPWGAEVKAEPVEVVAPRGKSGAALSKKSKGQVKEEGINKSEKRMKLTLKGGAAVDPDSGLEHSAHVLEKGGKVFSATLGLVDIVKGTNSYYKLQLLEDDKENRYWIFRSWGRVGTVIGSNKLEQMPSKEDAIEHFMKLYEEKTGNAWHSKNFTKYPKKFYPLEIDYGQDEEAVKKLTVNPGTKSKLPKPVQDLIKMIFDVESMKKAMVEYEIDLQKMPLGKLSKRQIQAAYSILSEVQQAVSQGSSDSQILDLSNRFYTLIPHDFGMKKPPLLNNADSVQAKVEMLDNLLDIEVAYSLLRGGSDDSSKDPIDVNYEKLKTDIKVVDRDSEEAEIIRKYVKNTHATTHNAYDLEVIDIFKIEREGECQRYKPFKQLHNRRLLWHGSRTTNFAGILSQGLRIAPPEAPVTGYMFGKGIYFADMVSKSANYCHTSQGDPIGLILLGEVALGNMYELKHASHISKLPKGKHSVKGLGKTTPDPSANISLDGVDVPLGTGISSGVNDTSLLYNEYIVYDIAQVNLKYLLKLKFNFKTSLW
Description: as §1

Poly [ADP-ribose] polymerase 2, sequence (Q9UGN5 whole entry): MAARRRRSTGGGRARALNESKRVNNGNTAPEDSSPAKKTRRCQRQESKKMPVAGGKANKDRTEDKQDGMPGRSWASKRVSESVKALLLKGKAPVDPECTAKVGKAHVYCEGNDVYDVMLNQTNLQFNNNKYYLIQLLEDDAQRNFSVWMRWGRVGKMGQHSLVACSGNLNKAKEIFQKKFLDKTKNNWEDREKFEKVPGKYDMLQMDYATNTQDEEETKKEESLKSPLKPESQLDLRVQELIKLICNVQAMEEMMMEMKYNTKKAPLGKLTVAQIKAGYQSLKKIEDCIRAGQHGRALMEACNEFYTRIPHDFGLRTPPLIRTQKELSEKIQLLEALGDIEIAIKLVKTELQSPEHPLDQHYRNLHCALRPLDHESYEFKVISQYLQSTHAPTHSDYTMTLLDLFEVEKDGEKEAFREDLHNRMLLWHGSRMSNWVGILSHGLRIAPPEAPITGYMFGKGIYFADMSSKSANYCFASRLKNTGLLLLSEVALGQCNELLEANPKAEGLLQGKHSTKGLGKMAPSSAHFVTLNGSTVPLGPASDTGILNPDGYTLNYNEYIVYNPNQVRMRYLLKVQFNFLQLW

IC50 [1] [nM]	IC50 [2] [nM]	SMILES
> 100000	4.3	CNC(=O)c1ccc(N2CCN(Cc3cc(F)c4c5c(c(=O)[nH]c4c3)COC5)CC2)c(F)n1 [US11795173, Comp. Ex. 3]
> 100000	4	CNC(=O)c1ccc(N2CCN(Cc3ccc4c5c(c(=O)[nH]c4c3)CCO5)CC2)c(Cl)n1 [US11795173, Comp. Ex. 2]
